Experimental data: US12624018B1, “Inhibitors of RIPK2 and medical uses thereof” (Odyssey Therapeutics, Inc., priority 2022, dated 2026)
Counter-ions that a name gives are not always drawn. Like-named read-outs stand apart in the source and are kept apart here.

What was measured:
[1] = target: T1, RIPK2 enzyme (Homo sapiens, UniProt O43353); experiment: RIPK2 inhibition (ADP-Glo Kinase Assay); type: biochemical; settings: RIPK2 5 nM, ATP 150 μM, MBP substrate, read-out: RIPK2 IC50
T1 construct: purchased Carna 09-128
T1 sequence (O43353 1-299 limits assumed): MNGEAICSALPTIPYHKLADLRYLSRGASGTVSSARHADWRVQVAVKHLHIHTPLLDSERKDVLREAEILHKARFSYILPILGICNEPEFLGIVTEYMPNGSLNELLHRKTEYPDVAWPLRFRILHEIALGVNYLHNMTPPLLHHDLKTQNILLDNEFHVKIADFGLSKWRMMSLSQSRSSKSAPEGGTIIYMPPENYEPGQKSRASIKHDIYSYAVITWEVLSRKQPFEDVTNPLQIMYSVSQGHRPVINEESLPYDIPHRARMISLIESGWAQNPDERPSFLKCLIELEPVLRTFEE
In short: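 Human RIPK2 (5 nM) preincubated with compound 30 min at room temperature in 50 mM HEPES pH 7.5, 10 mM MgCl2, 2 mM DTT, 1 mM EGTA, 0.01% Brij-35, 0.05% BSA; native swine MBP as substrate. ADP formed quantified by ADP-Glo luminescence; percent inhibition relative to DMSO and no-enzyme controls.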

[2] = test system: human NOD2 signaling; experiment: Inhibition of human NOD2 signaling in HEK-Blue-hNOD2 cells (L18-MDP stimulated, SEAP reporter); type: cell-based; settings: NOD2 ligand stimulation, SEAP reporter, read-out: hNOD2 IC50
In short: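 HEK-Blue-hNOD2 cells (HEK293 with NOD2 and SEAP reporter), 12500/well, treated with 10-point 3-fold compound dilutions plus L18-MDP 0.5 ng/mL final, 24 h at 37 °C. Supernatant SEAP read with QUANTI-Blue after 3 h at 620 nm; IC50 by 4-parameter fit vs DMSO±L18-MDP controls.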

[3] = Homo sapiens, HEK-Blue hNOD2, HEK-Blue-hNOD2 cells

Cc1cc(CC(=O)Nc2cc(C(C)(C)C)[nH]n2)cc(F)c1Oc1ccnc2cc(F)c(C(N)=O)cc12 [Compound 617, 4-(4-(2-((5-(tert-butyl)-1H-pyrazol-3-yl)amino)-2-oxoethyl)-2-fluoro-6-methylphenoxy)-7-fluoroquinoline-6-carboxamide]
IC50 [1]: < 2.5 nM | IC50 [2, 3]: 1.1 nM

N=S(=O)(c1ccc2nccc(Oc3cc(F)c(CC(=O)Nc4cnn(C56CC(C5)C6)c4)cc3Cl)c2c1)C1CC1 (single isomer, unassigned) [Compound 531, N-(1-(bicyclo[1.1.1]pentan-1-yl)-1H-pyrazol-4-yl)-2-(5-chloro-4-((6-(cyclopropanesul-fonimidoyl)quinolin-4-yl)oxy)-2-fluorophenyl) acetamide]
IC50 [1]: < 2.5 nM | IC50 ([2]; HEK-Blue-hNOD2 cells): 41.6 nM

Cc1cc(CC(=O)Nc2cnn(C(C)(C)C)c2)ccc1Oc1ccnc2ccc(C3(C(N)=O)CC3)cc12 [Compound 603, 1-(4-(4-(2-((1-(tert-butyl)-1H-pyrazol-4-yl)amino)-2-oxoethyl)-2-methylphenoxy)quinolin-6-yl)cyclopropane-1-carboxamide]
IC50 [1]: < 2.5 nM | IC50 [2, 3]: 2.5 nM

Cc1cc(CC(=O)Nc2cnn(C(C)(C)C)c2)c(F)cc1Oc1ccnc2ccc(-c3cccnc3C)cc12 [Compound 508, N-(1-(tert-butyl)-1H-pyrazol-4-yl)-2-(2-fluoro-5-methyl-4-((6-(2-methylpyridin-3-yl)quinolin-4-yl)oxy)phenyl)acetamide]
IC50 [1]: < 2.5 nM | IC50 [2, 3]: 2.5 nM

CNC(=O)c1cc2c(Oc3ccc(CC(=O)Nc4cnn(C(C)(C)C)c4)c(C#N)c3C)ccnc2cc1F [Compound 611, 4-(4-(2-((1-(tert-butyl)-1H-pyrazol-4-yl)amino)-2-oxoethyl)-3-cyano-2-methylphenoxy)-7-fluoro-N-methylquinoline-6-carboxamide]
IC50 [1]: < 2.5 nM | IC50 [2, 3]: 0.9 nM

CC(C)(C)c1cc(NC(=O)Cc2ccc(Oc3ccnc4cc(F)c(C(N)=O)cc34)c(C(F)F)c2)n[nH]1 [Compound 619, 4-(4-(2-((5-(tert-butyl)-1H-pyrazol-3-yl)amino)-2-oxoethyl)-2-(difluoromethyl)phenoxy)-7-fluoroquinoline-6-carboxamide]
IC50 [1]: < 2.5 nM | IC50 [2, 3]: 1.4 nM

Cc1cc(CC(=O)Nc2cnn(C(C)(C)C)c2)cc(F)c1Oc1ccnc2cc(Cl)c(C(N)=O)cc12 [Compound 602, 4-(4-(2-((1-(tert-butyl)-1H-pyrazol-4-yl)amino)-2-oxoethyl)-2-fluoro-6-methylphenoxy)-7-chloroquinoline-6-carboxamide]
IC50 [1]: < 2.5 nM | IC50 [2, 3]: 8 nM

CNC(=O)C(C)(C)c1ccc2nccc(Oc3cc(F)c(CC(=O)Nc4cnn(C(C)(C)C)c4)cc3C)c2c1 [Compound 569, 2-(4-(4-(2-((1-(tert-butyl)-1H-pyrazol-4-yl)amino)-2-oxoethyl)-5-fluoro-2-methylphenoxy)quinolin-6-yl)-N,2-dimethylpropanamide]
IC50 [1]: < 2.5 nM | IC50 [2, 3]: 10.4 nM

Cc1cc(CC(=O)Nc2cnn(C(C)(C)C)c2)c(F)cc1Oc1ccnc2ccc(-c3cnccc3C)cc12 [Compound 507, N-(1-(tert-butyl)-1H-pyrazol-4-yl)-2-(2-fluoro-5-methyl-4-((6-(4-methylpyridin-3-yl)quinolin-4-yl)oxy)phenyl)acetamide]
IC50 [1]: < 2.5 nM | IC50 [2, 3]: 0.3 nM

Cc1c(Oc2ccnc3ccc(S(=N)(=O)C4CC4)cc23)ccc(CC(=O)Nc2cnn(C34CC(C3)C4)c2)c1F (single isomer, unassigned) [Compound 527]
IC50 [1]: < 2.5 nM | IC50 ([2]; HEK-Blue-hNOD2 cells): 0.7 nM

[2H]C([2H])([2H])C(n1cc(NC(=O)Cc2cc(C)c(Oc3ccnc4cc(F)c(C(N)=O)cc34)c(F)c2)cn1)(C([2H])([2H])[2H])C([2H])([2H])[2H] [Compound 608, 7-fluoro-4-(2-fluoro-6-methyl-4-(2-((1-(2-(methyl-d3)propan-2-yl-1,1,1,3,3,3-d6)-1H-pyrazol-4-yl)amino)-2-oxoethyl)phenoxy) quinoline-6-carboxamide]
IC50 [1]: 2.5 nM | IC50 [2, 3]: 1.6 nM

[2H]C([2H])([2H])NC(=O)c1cc2c(Oc3ccc(CC(=O)Nc4cnn(C(C)(C)C)c4)nc3C)ccnc2cc1F [Compound 614, 4-((6-(2-((1-(tert-butyl)-1H-pyrazol-4-yl)amino)-2-oxoethyl)-2-methylpyridin-3-yl)oxy)-7-fluoro-N-(methyl-d3)quinoline-6-carboxamide]
IC50 [1]: < 2.5 nM | IC50 [2, 3]: 3.7 nM

Cc1c(Oc2ccnc3cc(F)c(C(N)=O)cc23)ccc(CC(=O)Nc2cnn(C(C)(C)C)c2)c1C#N [Compound 610, 4-(4-(2-((1-(tert-butyl)-1H-pyrazol-4-yl)amino)-2-oxoethyl)-3-cyano-2-methylphenoxy)-7-fluoroquinoline-6-carboxamide]
IC50 [1]: < 2.5 nM | IC50 [2, 3]: 2.1 nM

CNC(=O)Cc1ccc2nccc(Oc3cc(F)c(CC(=O)Nc4cnn(C(C)(C)C)c4)cc3C)c2c1 [Compound 567, N-(1-(tert-butyl)-1H-pyrazol-4-yl)-2-(2-fluoro-5-methyl-4-((6-(2-(methylamino)-2-oxoethyl)quinolin-4-yl)oxy)phenyl)acetamide formic acid salt]
IC50 [1]: < 2.5 nM | IC50 [2, 3]: 9.8 nM

Cc1cc(CC(=O)Nc2cnn(C(C)(C)C)c2)c(F)cc1Oc1ccnc2ccc(-c3cncnc3C)cc12 [Compound 524, N-(1-(tert-butyl)-1H-pyrazol-4-yl)-2-(2-fluoro-5-methyl-4-((6-(4-methylpyrimidin-5-yl)quinolin-4-yl)oxy)phenyl)acetamide]
IC50 [1]: < 2.5 nM | IC50 [2, 3]: 0.7 nM

Cc1c(Oc2ccnc3ccc(S(=N)(=O)C(C)(C)C)cc23)ccc(CC(=O)Nc2cnn(C(C)(C)C)c2)c1F (single isomer, unassigned) [Compound 539, N-(1-(tert-butyl)-1H-pyrazol-4-yl)-2-(2-fluoro-3-methyl-4-((6-(2-methylpropan-2-ylsulfonimidoyl)quinolin-4-yl)oxy)phenyl) acetamide]
IC50 [1]: < 2.5 nM | IC50 ([2]; HEK-Blue-hNOD2 cells): 1.2 nM

Cc1cc(CC(=O)Nc2cnn(C34CC(C3)C4)c2)cc(C)c1Oc1ccnc2ccc(C(N)=O)cc12 [Compound 587, 4-(4-(2-((1-(bicyclo[1.1.1]pentan-1-yl)-1H-pyrazol-4-yl)amino)-2-oxoethyl)-2,6-dimethylphenoxy)quinoline-6-carboxamide]
IC50 [1]: < 2.5 nM | IC50 [2, 3]: 28.6 nM

CC(C)(C)n1cc(NC(=O)Cc2ccc(Oc3ccnc4cc(F)c(C(N)=O)cc34)c(C(F)F)c2)cn1 [Compound 575, 4-(4-(2-((1-(tert-butyl)-1H-pyrazol-4-yl)amino)-2-oxoethyl)-2-(difluoromethyl)phenoxy)-7-fluoroquinoline-6-carboxamide]
IC50 [1]: < 2.5 nM | IC50 [2, 3]: 2.2 nM

[2H]C([2H])([2H])NC(=O)c1ccc2nccc(Oc3cc(F)c(CC(=O)Nc4cnn(C56CC(C5)C6)c4)cc3Cl)c2c1 [Compound 511, 4-(4-(2-((1-(bicyclo[1.1.1]pentan-1-yl)-1H-pyrazol-4-yl)amino)-2-oxoethyl)-2-chloro-5-fluorophenoxy)-N-(methyl-d3)quinoline-6-carboxamide]
IC50 [1]: < 2.5 nM | IC50 [2, 3]: 8 nM

[2H]C([2H])([2H])NC(=O)c1cc2c(Oc3ccc(CC(=O)Nc4cnn(C(C)(C)C)c4)cc3C(F)F)ccnc2cc1OC [Compound 580, 4-(4-(2-((1-(tert-butyl)-1H-pyrazol-4-yl)amino)-2-oxoethyl)-2-(difluoromethyl)phenoxy)-7-methoxy-N-(methyl-d3)quinoline-6-carboxamide]
IC50 [1]: < 2.5 nM | IC50 [2, 3]: 1.2 nM

[2H]C([2H])([2H])NC(=O)c1cc2c(Oc3c(C)cc(CC(=O)Nc4cnn(C(C)(C)C)c4)cc3Cl)ccnc2cc1F [Compound 586, 4-(4-(2-((1-(tert-butyl)-1H-pyrazol-4-yl)amino)-2-oxoethyl)-2-chloro-6-methylphenoxy)-7-fluoro-N-(methyl-d3)quinoline-6-carboxamide]
IC50 [1]: < 2.5 nM | IC50 [2, 3]: 0.6 nM

Cc1c(Oc2ccnc3ccc(C4(C(N)=O)CCC4)cc23)cc(F)c(CC(=O)Nc2cnn(C(C)(C)C)c2)c1F [Compound 606, 1-(4-(4-(2-((1-(tert-butyl)-1H-pyrazol-4-yl)amino)-2-oxoethyl)-3,5-difluoro-2-methylphenoxy)quinolin-6-yl)cyclobutane-1-carboxamide]
IC50 [1]: 3.8 nM | IC50 [2, 3]: 0.8 nM

CNC(=O)C1(c2ccc3nccc(Oc4cc(F)c(CC(=O)Nc5cnn(C(C)(C)C)c5)cc4C)c3c2)CC1 [Compound 571, 1-(4-(4-(2-((1-(tert-butyl)-1H-pyrazol-4-yl)amino)-2-oxoethyl)-5-fluoro-2-methylphenoxy)quinolin-6-yl)-N-methylcyclopropane-1-carboxamide formic acid salt]
IC50 [1]: 2.9 nM | IC50 [2, 3]: 4.5 nM

CCS(=N)(=O)c1ccc2nccc(Oc3ccc(CC(=O)Nc4cnn(C(C)(C)C)c4)c(F)c3C)c2c1 (single isomer, unassigned) [Compound 536, N-(1-(tert-butyl)-1H-pyrazol-4-yl)-2-(4-((6-(ethylsulfonimi-doyl)quinolin-4-yl)oxy)-2-fluoro-3-methylphenyl) acetamide]
IC50 [1]: < 2.5 nM | IC50 ([2]; HEK-Blue-hNOD2 cells): 0.7 nM

Cc1cc(CC(=O)Nc2cnn(C(C)(C)C)c2)c(F)cc1Oc1ccnc2ccc(C3(C(N)=O)CC3)cc12 [Compound 570, 1-(4-(4-(2-((1-(tert-butyl)-1H-pyrazol-4-yl)amino)-2-oxoethyl)-5-fluoro-2-methylphenoxy)quinolin-6-yl)cyclopropane-1-carboxamide]
IC50 [1]: 2.7 nM | IC50 [2, 3]: 10.5 nM
